Changes are numbered by the printed parent chain.
Experiments:
luxN^S184I/S230P = target: T1, luxN^S184I/S230P (Vibrio campbellii, UniProt A7MRY4, S184I/S230P); test: Bioluminescence of V. harveyi XK006 carrying luxN S184I/S230P; type: cell-based, Vibrio harveyi; conditions: 10 μM 3O-C10 HSL
T1 sequence (A7MRY4 1-849 S184I/S230P): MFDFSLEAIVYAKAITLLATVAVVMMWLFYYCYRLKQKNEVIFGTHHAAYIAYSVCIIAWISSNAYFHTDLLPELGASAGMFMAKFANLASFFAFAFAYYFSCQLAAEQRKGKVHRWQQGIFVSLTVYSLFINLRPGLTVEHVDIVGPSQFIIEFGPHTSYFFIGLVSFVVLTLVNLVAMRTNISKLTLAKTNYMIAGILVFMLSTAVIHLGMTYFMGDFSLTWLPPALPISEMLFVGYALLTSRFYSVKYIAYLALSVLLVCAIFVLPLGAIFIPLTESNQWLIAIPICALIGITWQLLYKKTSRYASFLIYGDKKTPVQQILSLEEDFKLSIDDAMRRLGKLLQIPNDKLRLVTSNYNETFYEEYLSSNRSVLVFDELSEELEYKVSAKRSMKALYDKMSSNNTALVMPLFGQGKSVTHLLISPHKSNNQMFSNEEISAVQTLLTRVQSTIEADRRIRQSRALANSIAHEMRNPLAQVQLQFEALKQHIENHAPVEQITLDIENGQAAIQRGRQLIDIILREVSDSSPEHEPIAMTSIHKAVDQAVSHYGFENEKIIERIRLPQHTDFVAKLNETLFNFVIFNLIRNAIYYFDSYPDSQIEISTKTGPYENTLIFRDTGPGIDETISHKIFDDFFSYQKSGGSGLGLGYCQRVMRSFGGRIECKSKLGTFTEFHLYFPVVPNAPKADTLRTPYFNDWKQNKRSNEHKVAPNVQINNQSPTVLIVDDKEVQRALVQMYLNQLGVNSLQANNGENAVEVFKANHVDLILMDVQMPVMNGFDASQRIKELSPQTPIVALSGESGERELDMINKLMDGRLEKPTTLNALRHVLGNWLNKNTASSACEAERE

luxN^T159I/Y193K = target: T2, luxN^T159I/Y193K (Vibrio campbellii, UniProt A7MRY4, N193K/T159I); test: Bioluminescence of V. harveyi XK006 carrying luxN T159I/Y193K; type: cell-based, Vibrio harveyi; conditions: 10 μM 3O-C10 HSL
T2 sequence (A7MRY4 1-849 T159I/N193K): T1 sequence (A7MRY4 1-849 S184I/S230P) with T159I, I184S, N193K, P230S

luxN^S230P = luxN^S230P (Vibrio campbellii, UniProt A7MRY4, S230P); conditions: 10 μM 3O-C10 HSL
LuxN [1] = target: T3, LuxN (Vibrio campbellii, UniProt A7MRY4); type: cell-based, Vibrio harveyi; conditions: 1 μM AHL with 20 nM AI-1; V. harveyi TL25
AinR^Q204H = test: Bioluminescence of V. harveyi XK006 harboring ainR Q204H; type: cell-based, Vibrio fischeri
[2] = target: LuxN^L166A mutant with Ser209 (Vibrio campbellii, UniProt A7MRY4, I209S/L166A); conditions: AHLs added at 1 μM
luxN^L166A/H210N = luxN^L166A/H210N (Vibrio campbellii, UniProt A7MRY4, H210N/L166A); conditions: AHLs added at 1 μM
WT AinR = test: Bioluminescence of V. harveyi XK006 harboring WT V. fischeri ainR; type: cell-based, Vibrio fischeri; conditions: AHLs added at 1 μM
LuxN^L166A = LuxN^L166A (Vibrio campbellii, UniProt A7MRY4, L166A)
WT LuxN = WT LuxN (Vibrio campbellii, UniProt A7MRY4); conditions: XK006 carrying WT luxN
LuxN^H210Q = target: T4, LuxN^H210Q (Vibrio campbellii, UniProt A7MRY4, H210Q); test: Bioluminescence of V. harveyi XK006 carrying luxN H210Q; type: cell-based, Vibrio harveyi; conditions: 1 μM AHL
T4 sequence (A7MRY4 1-849 H210Q): T1 sequence (A7MRY4 1-849 S184I/S230P) with I184S, H210Q, P230S

LuxN^H210T = target: T5, LuxN^H210T (Vibrio campbellii, UniProt A7MRY4, H210T); test: Bioluminescence of V. harveyi XK006 carrying luxN H210T; type: cell-based, Vibrio harveyi; conditions: 1 μM AHL
T5 sequence (A7MRY4 1-849 H210T): T1 sequence (A7MRY4 1-849 S184I/S230P) with I184S, H210T, P230S

LuxN [3] = target: T3, LuxN; conditions: 1 μM AHL; V. harveyi TL25
Kin^off LuxN mutants = test: Bioluminescence of V. harveyi XK847 harboring Kin^off luxN alleles; type: cell-based, Vibrio harveyi

Structure (SMILES): CCCCCCCC(=O)CC(=O)N[C@H]1CCOC1=O [3O-C10 HSL]
- increase in light production (luxN^S184I/S230P): 10 fold
- increase in light production (luxN^T159I/Y193K): 20 fold
- induction of light production (luxN^S230P): 20 fold

Structure (SMILES): CCCCCC(O)CC(=O)N[C@H]1CCOC1=O (some centres unmarked) [3OH-C8 HSL]
- reduction in light production (LuxN [1]): five-fold
- detection (light production) (AinR^Q204H): lost the ability to detect
- ligand detection (light production) [2]: restricted to 3OH-C8 HSL
- light production (luxN^L166A/H210N): Significantly less light
- light production (WT AinR): light production was induced
- detection (light production) (LuxN^L166A): robustly detects

Structure (SMILES): C[C@@H](O)CC(=O)N[C@H]1CCOC1=O [(S)-3OH-C4 HSL]
- response (dose-dependent light production) (WT LuxN): did not respond

Structure (SMILES): CCCC(=O)N[C@H]1CCOC1=O [C4 HSL]
- induction of light production (LuxN^H210Q): 30 fold
- induction of light production (LuxN^H210T): 100 fold
- induction of light production (LuxN [3]): did not induce light production
- light production / detection (Kin^off LuxN mutants): also detected

From publication PMC4275348 (Molecular microbiology, 2014)
